Laboratory results as given in patent publication US8088806B2 (Achillion Pharmaceuticals, Inc., priority 2005, dated 2012).

The compounds below were run on HCV replicon (assay: Replicon based assay of HCV replication inhibition (NPT ELISA)). Details: Hepatitis C virus, Huh-7, 72 h, Table I; Huh-7 HCV replicon-containing cells, three days; read-out: Activity.
Type: cell-based, Hepatitis C virus
Summary of the method: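 NPT (neomycin phosphotransferase) content, proportional to replicon replication, quantified by capture ELISA on day four. Before that, replicon-bearing Huh-7 cells in G418-free screening medium were exposed three days at 37° C to compound, typically six doses from 10 to 0.03 micromolar, with equal DMSO across wells.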

`CCN(CC)S(=O)(=O)c1ccc(-c2csc(Nc3ccc(Br)cc3)n2)cc1` [compound 120, N-(4-bromophenyl)-4-diethylaminosulfonyl-phenyl-2-amine] and `COc1ccc(Nc2nc(-c3ccc(OCc4ccc(Br)cc4)cc3)cs2)cc1` [compound 122, 4-(4-(4-bromobenzyloxy)phenyl)-N-(4-methoxyphenyl)thiazol-2-amine] cannot be ordered by EC50: > 10 µM for the first, > 10 µM for the second.

`O=C(Nc1ccc(Cl)c(Cl)c1)c1nc(-c2cccnc2)cs1` [compound 123, N-(3,4-dichlorophenyl)-4-(pyridin-3-yl)thiazole-2-carboxamide] and `O=C(Nc1ccc(Cl)c(Cl)c1)c1csc(-c2cccnc2)n1` [compound 125, N-(3,4-dichlorophenyl)-2-(pyridin-3-yl)thiazole-4-carboxamide] cannot be ordered by EC50: > 10 µM for the first, > 10 µM for the second.

`CN(C(=O)c1nc(-c2cccnc2)cs1)c1ccc(Cl)c(Cl)c1` [compound 124, N-(3,4-dichlorophenyl)-N-methyl-4-(pyridin-3-yl)thiazole-2-carboxamide] and `CN(C(=O)c1csc(-c2cccnc2)n1)c1ccc(Cl)c(Cl)c1` [compound 126, N-(3,4-dichlorophenyl)-N-methyl-2-(pyridin-3-yl)thiazole-4-carboxamide] cannot be ordered by EC50: > 10 µM for the first, > 10 µM for the second.

`CCCCCOc1ccc(NC(=O)c2csc(-c3cccnc3)n2)cc1C(F)(F)F` [compound 127, N-(3-(trifluoromethyl)-4-(pentyloxy)phenyl)-2-(pyridin-3-yl)thiazole-4-carboxamide] and `CCCCCOc1ccc(N(C)c2nc(C(=O)Nc3cccnc3)cs2)cc1C(F)(F)F` [compound 162, 2-(N-(3-(trifluoromethyl)-4-(pentyloxy)phenyl)-N-methylamino)-N-(pyridin-3-yl)thiazole-4-carboxamide] cannot be ordered by EC50: > 10 µM for the first, > 10 µM for the second.

Compared with `CCCCCOc1ccc(Nc2nc(C(=O)Nc3ccc(Cl)c(Cl)c3)cs2)cc1C(F)(F)F` [compound 128, 2-(3-(trifluoromethyl)-4-(pentyloxy)phenylamino)-N-(3,4-dichlorophenyl)thiazole-4-carboxamide], `CCCCCOc1ccc(Nc2nc(C(=O)N(C)c3ccc(Cl)c(Cl)c3)cs2)cc1C(F)(F)F` [compound 129, 2-(3-(trifluoromethyl)-4-(pentyloxy)phenylamino)-N-(3,4-dichlorophenyl)-N-methylthiazole-4-carboxamide] is higher in EC50: 1 to 10 µM for the first, > 10 µM for the second. The first is the more potent here.

`CCCCCOc1ccc(Nc2ncc(C(=O)OC)s2)cc1C(F)(F)F` [compound 130, methyl 2-(3-(trifluoromethyl)-4-(pentyloxy)phenylamino)thiazole-5-carboxylate] and `CCCCCOc1ccc(Nc2ncc(C(=O)O)s2)cc1C(F)(F)F` [compound 148, 2-(3-(trifluoromethyl)-4-(pentyloxy)phenylamino)thiazole-5-carboxylic acid] cannot be ordered by EC50: > 10 µM for the first, > 10 µM for the second.

`CCCCCOc1ccc(Nc2nc(-c3ccc(O)c(C(N)=O)c3)cs2)cc1C(F)(F)F` [compound 131, 5-(2-(3-(trifluoromethyl)-4-(pentyloxy)phenylamino)thiazol-4-yl)-2-hydroxybenzamide] and `CCCCCOc1ccc(Nc2nc(-c3ccc(F)c(F)c3)cs2)cc1C(F)(F)F` [compound 133, N-(3-(trifluoromethyl)-4-(pentyloxy)phenyl)-4-(3,4-difluorophenyl)thiazol-2-amine] cannot be ordered by EC50: < 1 µM for the first, < 1 µM for the second.

`CCCCCOc1ccc(Nc2nc(-c3ccc(C#N)cc3)cs2)cc1C(F)(F)F` [compound 132, 4-(2-(3-(trifluoromethyl)-4-(pentyloxy)phenylamino)thiazol-4-yl)benzonitrile] and `CCCCCOc1ccc(Nc2nc(-c3ccc(OC)cc3)cs2)cc1C(F)(F)F` [compound 134, N-(3-(trifluoromethyl)-4-(pentyloxy)phenyl)-4-(4-methoxyphenyl)thiazol-2-amine] cannot be ordered by EC50: < 1 µM for the first, < 1 µM for the second.

Going from `CCCCCOc1ccc(Nc2nc(-c3ccc(Cl)cc3)c(-c3ccccc3)s2)cc1C(F)(F)F` [compound 135, 4-(4-chlorophenyl)-N-(3-(trifluoromethyl)-4-(pentyloxy)phenyl)-5-phenylthiazol-2-amine] to `CCCCCOc1ccc(Nc2nc(-c3ccc(OCC(=O)O)cc3)c(C)s2)cc1C(F)(F)F` [compound 137, 2-(4-(2-(3-(trifluoromethyl)-4-(pentyloxy)phenylamino)-5-methylthiazol-4-yl)phenoxy)acetic acid], the EC50 falls from > 10 µM to < 1 µM. The second is the more potent here.

Going from `CCCCCOc1ccc(Nc2nc(C(C)=O)c(C)s2)cc1C(F)(F)F` [compound 136, 1-(2-(3-(trifluoromethyl)-4-(pentyloxy)phenylamino)-5-methylthiazol-4-yl)ethanone] to `CCCCCOc1ccc(Nc2nc(-c3ccc(C)nc3)cs2)cc1C(F)(F)F` [compound 154, N-(3-(trifluoromethyl)-4-(pentyloxy)phenyl)-4-(6-methylpyridin-3-yl)thiazol-2-amine], the EC50 falls from > 10 µM to < 1 µM.

`CCCCCOc1ccc(Nc2nc(-c3ccc(OCC(=O)OCC)cc3)c(C)s2)cc1C(F)(F)F` [compound 139, ethyl 2-(4-(2-(3-(trifluoromethyl)-4-(pentyloxy)phenylamino)-5-methylthiazol-4-yl)phenoxy)acetate] and `CCCCCOc1ccc(Nc2nc(-c3ccc(C(=O)O)cc3)cs2)cc1C(F)(F)F` [compound 155, 4-(2-(3-(trifluoromethyl)-4-(pentyloxy)phenylamino)thiazol-4-yl)benzoic acid] cannot be ordered by EC50: < 1 µM for the first, < 1 µM for the second.

`CCCCCOc1ccc(N(C(=O)c2cccnc2)c2nc(NC(=O)c3cccnc3)cs2)cc1C(F)(F)F` [compound 140, N-(2-(N-(3-(trifluoromethyl)-4-(pentyloxy)phenyl)nicotinamido)-thiazol-4-yl)nicotinamide] and `CCCCCOc1ccc(N(C)c2nc(-c3cccnc3)cs2)cc1C(F)(F)F` [compound 157, N-(3-(trifluoromethyl)-4-(pentyloxy)phenyl)-N-methyl-4-(pyridin-3-yl)thiazol-2-amine] cannot be ordered by EC50: < 1 µM for the first, < 1 µM for the second.

`c1ccc(Oc2ccc(Nc3nc(-c4cccnc4)cs3)cc2)cc1` [compound 141, N-(4-phenoxyphenyl)-4-(pyridin-3-yl)thiazol-2-amine] and `Fc1ccc(-c2csc(Nc3ccc(Oc4ccccc4)cc3)n2)cc1` [compound 144, 4-(4-fluorophenyl)-N-(4-phenoxyphenyl)thiazol-2-amine] cannot be ordered by EC50: < 1 µM for the first, < 1 µM for the second.

`Clc1ccc(-c2csc(NC3=NN(c4ccccc4)CC3)n2)cc1` [compound 142, N-(4-(4-chlorophenyl)thiazol-2-yl)-4,5-dihydro-1-phenyl-1H-pyrazol-3-amine] and `Fc1ccc(-c2csc(NC3=NN(c4ccccc4)CC3)n2)cc1` [compound 146, N-(4-(4-fluorophenyl)thiazol-2-yl)-4,5-dihydro-1-phenyl-1H-pyrazol-amine] cannot be ordered by EC50: > 10 µM for the first, > 10 µM for the second.

`c1ccc(N2CCC(Nc3nc(-c4cccnc4)cs3)=N2)cc1` [compound 143, 4,5-dihydro-1-phenyl-N-(4-(pyridin-3-yl)thiazol-2-yl)-1H-pyrazol-3-amine] and `Fc1ccc(-c2csc(Nc3nc(-c4ccc(Cl)cc4)cs3)n2)cc1` [compound 145, 4-(4-chlorophenyl)-N-(4-(4-fluorophenyl)thiazol-2-yl)thiazol-2-amine] cannot be ordered by EC50: > 10 µM for the first, > 10 µM for the second.

Going from `CCOC(=O)Cc1csc(Nc2nc(-c3ccc(Cl)cc3)cs2)n1` [compound 147, ethyl 2-(2-(4-(4-chlorophenyl)thiazol-2-ylamino)thiazol-4-yl)acetate] to `CCCCCOc1ccc(Nc2ncc(C(=O)Nc3ccc(Cl)cc3)s2)cc1C(F)(F)F` [compound 149, 2-(3-(trifluoromethyl)-4-(pentyloxy)phenylamino)-N-(4-chlorophenyl)thiazole-5-carboxamide], the EC50 falls from > 10 µM to < 1 µM. The second is the more potent here.

`CCCCCOc1ccc(Nc2ncc(C(=O)Nc3ccc(C#N)cc3)s2)cc1C(F)(F)F` [compound 150, 2-(3-(trifluoromethyl)-4-(pentyloxy)phenylamino)-N-(4-cyanophenyl)thiazole-5-carboxamide] and `CCCCCOc1ccc(Nc2ncc(C(=O)Nc3cccnc3)s2)cc1C(F)(F)F` [compound 163, 2-(3-(trifluoromethyl)-4-(pentyloxy)phenylamino)-N-(pyridin-3-yl)thiazole-5-carboxamide] cannot be ordered by EC50: < 1 µM for the first, < 1 µM for the second.

First: CCCCCOc1ccc(Nc2ncc(C(=O)NCc3ccc(S(N)(=O)=O)cc3)s2)cc1C(F)(F)F [compound 151, N-(4-aminosulfonyl-benzyl)-2-(4-(pentyloxy)-3-(trifluoromethyl)phenylamino)-thiazole-5-carboxamide]
Second: CCCCCOc1ccc(Nc2nc(C(=O)NCc3ccc(S(N)(=O)=O)cc3)cs2)cc1C(F)(F)F [compound 153, 2-(4-(pentyloxy)-3-(trifluorornethyl)phenylamino)-N-(4-aminosulfonylbenzyl)thiazole-4-carboxamide]
The EC50 of the first is higher: > 10 µM for the first, 1 to 10 µM for the second. The second is the more potent here.

Compared with `CCCCCOc1ccc(Nc2nc(-c3cnccn3)cs2)cc1C(F)(F)F` [compound 156, N-(3-(trifluoromethyl)-4-(pentyloxy)phenyl)-4-(pyrazin-2-yl)thiazol-2-amine], `CCCCCOc1ccc(Nc2nc(C(N)CC(C)C)cs2)cc1C(F)(F)F` (centres unmarked) [compound 161, 4-(1-amino-3-methylbutyl)-N-(3-(trifluoromethyl)-4-(pentyloxy)phenyl)thiazol-2-amine] is higher in EC50: < 1 µM for the first, 1 to 10 µM for the second.

`CCCCCOc1ccc(N(C)c2nc(C(=O)O)cs2)cc1C(F)(F)F` [compound 158, 2-(N-(3-(trifluoromethyl)-4-(pentyloxy)phenyl)-N-methylamino)thiazole-4-carboxylic acid] and `CCCCCOc1ccc(N(C)c2nc(C(=O)Nc3ccc(Cl)cc3)cs2)cc1C(F)(F)F` [compound 159, 2-(N-(3-(trifluoromethyl)-4-(pentyloxy)phenyl)-N-methylamino)-N-(4-chlorophenyl)thiazole-4-carboxamide] cannot be ordered by EC50: > 10 µM for the first, > 10 µM for the second.

In the case of `CCCCCOc1ccc(N(C)c2nc(C(=O)Nc3ccc(C#N)cc3)cs2)cc1C(F)(F)F` [compound 160, 2-(N-(3-(trifluoromethyl)-4-(pentyloxy)phenyl)-N-methylamino)-N-(4-cyanophenyl)thiazole-4-carboxamide], the EC50 is reported as > 10 µM.
